Measurements from patent US8518912B2, “Phosphonic acid derivates and their use as P2Y12 receptor antagonists” (Actelion Pharmaceuticals Ltd., priority 2008, dated 2013).

Biological target: T1, human P2Y12 receptor (Homo sapiens, UniProt Q9H244)
T1 construct: expressed in transfected cells; host or cells: Chinese Hamster Ovary (CHO) cells
Experiment: P2Y12 receptor binding assay
Conditions: CHO cells with recombinant human P2Y12 receptor; tritium-labeled 2-methyl-S-ADP; 2 hours at RT
Procedure: Chinese Hamster Ovary (CHO) cells with recombinant expression of the human P2Y12 receptor were cultured in 24 well cell-culture plates. Cells were washed three times with binding buffer (50 mM Tris pH 7.4, 100 mM NaCl, […], 0.5% BSA). The cells were then incubated with 0.5 ml per well binding buffer containing tritium-labeled 2-methyl-thio-adenosine 5′-diphosphate (2-methyl-S-ADP) (between 100,000 and 300,000 dpm per well) and various concentrations of test compounds. After incubation at RT for 2 hours, cells were washed three times with binding buffer. Then, cells were solubilized by addition of 0.5 ml solubilization buffer (SDS, NaOH, EDTA). The content of each well was then transferred into beta-counter vials and 2.0 ml of Ultima Gold Scintillation liquid was added.

T1 sequence (Q9H244 whole entry): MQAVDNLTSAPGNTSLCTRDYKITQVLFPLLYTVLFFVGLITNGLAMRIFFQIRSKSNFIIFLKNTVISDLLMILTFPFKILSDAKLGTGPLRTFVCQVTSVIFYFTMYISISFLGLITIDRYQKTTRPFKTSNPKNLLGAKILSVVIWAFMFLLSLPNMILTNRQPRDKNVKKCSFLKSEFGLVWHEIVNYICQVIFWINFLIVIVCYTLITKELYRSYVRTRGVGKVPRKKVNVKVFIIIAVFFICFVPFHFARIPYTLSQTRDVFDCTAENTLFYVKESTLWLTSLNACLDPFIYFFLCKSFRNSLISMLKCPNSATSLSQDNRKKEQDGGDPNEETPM

| IC50 [nM] | Compound |
| --- | --- |
| 3.1 | CCCCOC(=O)N1CCN(C(=O)[C@H](CP2(=O)Nc3ccccc3CO2)NC(=O)c2cc(N3CC[C@H](OC)C3)nc(-c3ccccc3)n2)CC1 (mixture of isomers) [Example 103, 4-[(R)-2-{[6-((S)-3-Methoxy-pyrrolidin-1-yl)-2-phenyl-pyrimidine-4-carbonyl]-amino}-3-(2-oxo-1,4-dihydro-2H-2λ^5-benzo[d][1,3,2]oxazaphosphinin-2-yl)-propionyl]-piperazine-1-carboxylic acid butyl ester] |
| 3.2 | CCCCOC(=O)N1CCN(C(=O)[C@H](CCP(=O)(O)O)NC(=O)c2cc(-n3cccn3)nc(-c3ccccc3)n2)CC1 [Example 7, 4-{(S)-2-[(2-phenyl-6-pyrazol-1-yl-pyrimidine-4-carbonyl)-amino]-4-phosphono-butyryl}-piperazine-1-carboxylic acid butyl ester] |
| 5.9 | CCCCOC(=O)N1CCN(C(=O)[C@H](CCP(=O)(O)O)NC(=O)c2cc(N3CCOCC3)nc(-c3ccccc3)n2)CC1 [Example 12, 4-{(S)-2-[(6-morpholin-4-yl-2-phenyl-pyrimidine-4-carbonyl)-amino]-4-phosphono-butyryl}-piperazine-1-carboxylic acid butyl ester] |
| 4.5 | CCCCOC(=O)N1CCN(C(=O)[C@H](CP(=O)(O)O)NC(=O)c2cc(NCC)nc(-c3ccccc3)n2)CC1 [Example 16, 4-{(R)-2-[(6-ethylamino-2-phenyl-pyrimidine-4-carbonyl)-amino]-3-phosphono-propionyl}-piperazine-1-carboxylic acid butyl ester] |
| 78 | CCCCOC(=O)N1CCN(C(=O)[C@H](CCP(=O)(O)O)NC(=O)c2cc(N3CC[C@H](OC)C3)nc(-c3cccc(F)c3)n2)CC1 [Example 21, 4-((S)-2-{[2-(3-fluoro-phenyl)-6-((S)-3-methoxy-pyrrolidin-1-yl)-pyrimidine-4-carbonyl]-amino}-4-phosphono-butyryl)-piperazine-1-carboxylic acid butyl ester] |
| 13 | CCCCOC(=O)N1CCN(C(=O)[C@H](CP(=O)(O)O)NC(=O)c2cc(-c3ccc(OC)cc3)nc(-c3ccccc3)n2)CC1 [Example 34, 4-((R)-2-{[6-(4-methoxy-phenyl)-2-phenyl-pyrimidine-4-carbonyl]-amino}-3-phosphono-propionyl)-piperazine-1-carboxylic acid butyl ester] |
| 14 | CCCCOC(=O)N1CCN(C(=O)[C@H](CP(=O)(O)O)NC(=O)c2cc(C3CC3)nc(-c3ccccc3)n2)CC1 [Example 35, 4-{(R)-2-[(6-cyclopropyl-2-phenyl-pyrimidine-4-carbonyl)-amino]-3-phosphono-propionyl}-piperazine-1-carboxylic acid butyl ester] |
| 78 | CCCCOC(=O)N1CCN(C(=O)[C@H](CP(=O)(O)O)NC(=O)c2cc(O[C@H]3CCOC3)nc(-c3ccccc3)n2)CC1 [Example 37, 4-[(R)-2-({2-phenyl-6-[(S)-(tetrahydro-furan-3-yl)oxy]-pyrimidine-4-carbonyl}-amino)-3-phosphono-propionyl]-piperazine-1-carboxylic acid butyl ester] |
| 61 | CCOC(=O)N1CCN(C(=O)[C@H](CP(=O)(O)O)NC(=O)c2cc(N3CC[C@H](OC)C3)nc(-c3ccccc3)n2)CC1C (stereo partly drawn) [Example 38, 4-((R)-2-{[6-((S)-3-methoxy-pyrrolidin-1-yl)-2-phenyl-pyrimidine-4-carbonyl]-amino}-3-phosphono-propionyl)-2-methyl-piperazine-1-carboxylic acid ethyl ester] |
| 5.5 | CCCCOC(=O)N1CCN(C(=O)[C@H](CP(=O)(O)O)NC(=O)c2cc(CCCOC)nc(-c3ccccc3)n2)CC1 [Example 45, 4-((R)-2-{[6-(3-methoxy-propyl)-2-phenyl-pyrimidine-4-carbonyl]-amino}-3-phosphono-propionyl)-piperazine-1-carboxylic acid butyl ester] |
| 49 | CCCCOC(=O)N1CCN(C(=O)[C@H](CCP(=O)(OCOC(=O)C(C)(C)C)OCOC(=O)C(C)(C)C)NC(=O)c2cc(N3CC[C@H](OC)C3)nc(-c3ccccc3)n2)CC1 [Example 48, 4-((S)-4-[bis-(2,2-dimethyl-propionyloxymethoxy)-phosphoryl]-2-{[6-((S)-3-methoxy-pyrrolidin-1-yl)-2-phenyl-pyrimidine-4-carbonyl]-amino}-butyryl)-piperazine-1-carboxylic acid butyl ester] |
| 162 | CCCCOC(=O)N1CCN(C(=O)C(NC(=O)c2cc(N3CC[C@H](OC)C3)nc(-c3ccccc3)n2)P(=O)(O)O)CC1 (stereo partly drawn) [Example 56, 4-(2-{[6-((S)-3-methoxy-pyrrolidin-1-yl)-2-phenyl-pyrimidine-4-carbonyl]-amino}-2-phosphono-acetyl)-piperazine-1-carboxylic acid butyl ester] |
| 7.5 | CCOC(=O)N1CCN(C(=O)[C@H](Cc2ccc(CP(=O)(O)O)cc2)NC(=O)c2cc(N3CC[C@H](OC)C3)nc(-c3ccccc3)n2)CC1 [Example 61, 4-[(S)-2-{[6-((S)-3-Methoxy-pyrrolidin-1-yl)-2-phenyl-pyrimidine-4-carbonyl]-amino}-3-(4-phosphonomethyl-phenyl)-propionyl]-piperazine-1-carboxylic acid ethyl ester] |
| 69 | CCCCOC(=O)N1CCN(C(=O)[C@@H](CCCP(=O)(O)O)NC(=O)c2cc(N3CC[C@H](OC)C3)nc(-c3ccccc3)n2)CC1 [Example 63, 4-((R)-2-{[6-((S)-3-Methoxy-pyrrolidin-1-yl)-2-phenyl-pyrimidine-4-carbonyl]-amino}-5-phosphono-pentanoyl)-piperazine-1-carboxylic acid butyl ester] |
| 13 | CCOC(=O)N1CCN(C(=O)[C@H](Cc2cccc(P(=O)(O)O)c2)NC(=O)c2cc(N3CC[C@H](OC)C3)nc(-c3ccccc3)n2)CC1 [Example 67, 4-[(S)-2-{[6-((S)-3-Methoxy-pyrrolidin-1-yl)-2-phenyl-pyrimidine-4-carbonyl]-amino}-3-(3-phosphono-phenyl)-propionyl]-piperazine-1-carboxylic acid ethyl ester] |
| 4.5 | CCCCOC(=O)N1CCN(C(=O)C(NC(=O)c2cc(N3CC[C@H](OC)C3)nc(-c3ccccc3)n2)c2cccc(P(=O)(O)O)c2)CC1 (stereo partly drawn) [Example 71, 4-[2-{[6-((S)-3-Methoxy-pyrrolidin-1-yl)-2-phenyl-pyrimidine-4-carbonyl]-amino}-2-(3-phosphono-phenyl)-acetyl]-piperazine-1-carboxylic acid butyl ester] |
| 3 | CCCCOC(=O)N1CCN(C(=O)[C@H](CP(=O)(O)O)NC(=O)c2cc(N3CCN(C)CC3)nc(-c3ccccc3)n2)CC1 [Example 73, 4-((R)-2-{[6-(4-Methyl-piperazin-1-yl)-2-phenyl-pyrimidine-4-carbonyl]-amino}-3-phosphono-propionyl)-piperazine-1-carboxylic acid butyl ester] |

| Compound | IC50 [nM] |
| --- | --- |
| CCCCOC(=O)N1CCN(C(=O)[C@H](CP2(=O)OCc3cccc(C)c3O2)NC(=O)c2cc(N3CC[C@H](OC)C3)nc(-c3ccccc3)n2)CC1 (mixture of isomers) [Example 110, 4-[(R)-2-{[6-((S)-3-Methoxy-pyrrolidin-1-yl)-2-phenyl-pyrimidine-4-carbonyl]-amino}-3-(8-methyl-2-oxo-4H-2λ^5-benzo[1,3,2]dioxaphosphinin-2-yl)-propionyl]-piperazine-1-carboxylic acid butyl ester] | 2.8 |
| CCCCOC(=O)N1CCN(C(=O)[C@H](CP(=O)(O)OCOC(C)=O)NC(=O)c2cc(N3CC[C@H](OC)C3)nc(-c3ccccc3)n2)CC1 (mixture of isomers) [Example 115, 4-((R)-3-(Acetoxymethoxy-hydroxy-phosphoryl)-2-{[6-((S)-3-methoxy-pyrrolidin-1-yl)-2-phenyl-pyrimidine-4-carbonyl]-amino}-propionyl)-piperazine-1-carboxylic acid butyl ester] | 5 |
| CCCCOC(=O)N1CCN(C(=O)[C@H](CCP(=O)(NCC(=O)OCC)NCC(=O)OCC)NC(=O)c2cc(N3CC[C@H](OC)C3)nc(-c3ccccc3)n2)CC1 [Example 75, N,N′-Bis-(ethoxycarbonylmethyl)-3-{(S)-[6-((S)-3-methoxy-pyrrolidin-1-yl)-2-phenyl-pyrimidine-4-carbonyl]-amino}-4-oxo-4-(4-butoxy-carbonyl-piperazin-1-yl)-butyl-phosphonic acid diamide] | 308 |
| CCCCOC(=O)N1CCN(C(=O)[C@H](CP(=O)(OCOC(=O)CCC)OCOC(=O)CCC)NC(=O)c2cc(N3CC[C@H](OC)C3)nc(-c3ccccc3)n2)CC1 [Example 78, 4-((R)-3-(Bis-butyryloxymethoxy-phosphoryl)-2-{[6-((S)-3-methoxy-pyrrolidin-1-yl)-2-phenyl-pyrimidine-4-carbonyl]-amino}-propionyl)-piperazine-1-carboxylic acid butyl ester] | 7 |
| CCCCOC(=O)N1CCN(C(=O)[C@H](CP(=O)(N[C@@H](Cc2ccccc2)C(=O)OC)N[C@@H](Cc2ccccc2)C(=O)OC)NC(=O)c2cc(N3CC[C@H](OC)C3)nc(-c3ccccc3)n2)CC1 [Example 87, N,N′-Bis-((S)-1-methoxycarbonyl-2-phenyl-ethyl)-2-{(R)-[6-((S)-3-methoxy-pyrrolidin-1-yl)-2-phenyl-pyrimidine-4-carbonyl]-amino}-3-oxo-3-(4-butoxy-carbonyl-piperazin-1-yl)-propyl-phosphonic acid diamide] | 11 |
